Data on 30 compounds can be found in patent publication US12503436B2, “Compounds and compositions for treating conditions associated with STING activity” (NOVARTIS PHARMA AG, priority 2021, dated 2025).

Structures are written as SMILES.

Sequence of STING (Q86WV6 whole entry R71H/G230A/H232R/R293Q): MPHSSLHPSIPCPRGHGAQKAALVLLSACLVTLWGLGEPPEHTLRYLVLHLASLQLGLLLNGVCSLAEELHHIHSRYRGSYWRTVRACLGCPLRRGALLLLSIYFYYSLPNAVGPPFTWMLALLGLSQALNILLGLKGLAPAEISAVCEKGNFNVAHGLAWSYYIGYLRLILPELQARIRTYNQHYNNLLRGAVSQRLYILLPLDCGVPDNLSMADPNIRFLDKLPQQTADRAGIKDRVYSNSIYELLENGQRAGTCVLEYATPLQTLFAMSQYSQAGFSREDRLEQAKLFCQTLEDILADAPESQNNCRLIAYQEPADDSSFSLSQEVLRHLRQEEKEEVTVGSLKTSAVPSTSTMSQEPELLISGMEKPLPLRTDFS

For the assay, the target named is STING (Homo sapiens, UniProt Q86WV6, G230A/H232R/R293Q/R71H). Put plainly: STING reporter assay in THP1-Dual KO-IFNAR2 cells (2′3′cGAMP stimulation, luciferase reporter). It counts as cell-based. The conditions noted are these: 15 μM 2′3′cGAMP stimulation, 24 h, read-out: Pharmaron, THP1_IFNAR2 STING 24 h Luci Normalized: GeoMean EC50. The procedure, abridged:
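EC50 from secreted luciferase (QUANTI-Luc Plus luminescence of supernatant) after 24 h at 37 °C, 5% CO2. Cells: THP1-Dual KO-IFNAR2, treated with compound (0.0017-100 μM final) plus lipofected 2′3′cGAMP at 15 μM final.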
`CC1(C(=O)Nc2c[nH]c3ccc(O[C@H]4C[C@H](c5ccc(C(F)(F)F)cc5)C4)cc23)CN(CC(F)F)C1` [Compound 483, 1-(2,2-difluoroethyl)-3-methyl-N-(5-(trans-3-(4-(trifluoromethyl)phenyl)cyclobutoxy)-1H-indol-3-yl)azetidine-3-carboxamide]: the EC50 fell in the range of 0.04 to 0.2 µM. The result for `CC(=O)Nc1c[nH]c2ccc(OCCc3sc(C(F)(F)F)nc3C)cc12` [Compound 484, N-(5-(2-(4-methyl-2-(trifluoromethyl)thiazol-5-yl)ethoxy)-1H-indol-3-yl)acetamide] reads 1 to 5 µM; that for `CC1(C(=O)Nc2c[nH]c3ccc(OC[C@@H]4C[C@H]5CC[C@@H](C4)N5CC(F)(F)F)cc23)COC1` [Compound 485, 3-methyl-N-(5-(((1R,3s,5S)-8-(2,2,2-trifluoroethyl)-8-azabicyclo[3.2.1]octan-3-yl)methoxy)-1H-indol-3-yl)oxetane-3-carboxamide], 1 to 5 µM.

Regarding `COCCOCC(=O)Nc1c[nH]c2ccc(O[C@H]3C[C@H](c4ccc(C(F)(F)F)cc4)C3)cc12` [Compound 486, 2-(2-methoxyethoxy)-N-{5-[(1R,3R)-3-[4-(trifluoromethyl)phenyl]cyclobutoxy]-1H-indol-3-yl}acetamide], the EC50 lay within 0.04 to 0.2 µM. As for `CC1(C(=O)Nc2c[nH]c3ccc(O[C@H]4C[C@H](c5ccc(C(F)(F)F)cc5)C4)cc23)CCCO1` (stereo partly drawn) [Compound 487, 2-methyl-N-{5-[(1R,3R)-3-[4-(trifluoromethyl)phenyl]cyclobutoxy]-1H-indol-3-yl}oxolane-2-carboxamide], the EC50 is 0.04 to 0.2 µM.

Regarding `CC1(C(=O)Nc2c[nH]c3ccc(O[C@H]4C[C@H](c5ccc(C(F)(F)F)cc5)C4)cc23)CCOCC1` [Compound 488, 4-methyl-N-{5-[(1R,3R)-3-[4-(trifluoromethyl)phenyl]cyclobutoxy]-1H-indol-3-yl}oxane-4-carboxamide], the EC50 was in the range of 0.04 to 0.2 µM. The result for `O=C(Nc1c[nH]c2ccc(O[C@H]3C[C@H](c4ccc(C(F)(F)F)cc4)C3)cc12)C1(F)CC1` [Compound 489, l-fluoro-N-{5-[(1R,3R)-3-[4-(trifluoromethyl)phenyl]cyclobutoxy]-1H-indol-3-yl}cyclopropane-1-carboxamide] reads 0.2 to 1 µM; that for `CC(=O)Nc1c[nH]c2ccc(CCOc3ccc4c(c3)CCCC4)cc12` [Compound 490, N-(5-[2-(5,6,7,8-tetrahydronaphthalen-2-yloxy)ethyl]-1H-indol-3-yl}acetamide], 0.04 to 0.2 µM. Under `CC(=O)Nc1c[nH]c2ccc(CCOc3ccnc(OC(F)F)c3)cc12` [Compound 491, N-[5-(2-{[2-(difluoromethoxy)pyridin-4-yl]oxy}ethyl)-1H-indol-3-yl]acetamide] stands 0.2 to 1 µM; under `CC(=O)Nc1c[nH]c2ccc(COCC34CC(CN3CC(F)(F)F)C4)cc12` [Compound 492, N-(5-(((2-(2,2,2-trifluoroethyl)-2-azabicyclo[2.1.1]hexan-1-yl)methoxy)methyl)-1H-indol-3-yl)acetamide], 5 to 100 µM. As to `O=C(Nc1c[nH]c2ccc(O[C@H]3C[C@H](c4ccc(C(F)(F)F)cc4)C3)cc12)C1CCOCC1` [Compound 493, N-{5-[(1R,3R)-3-[4-(trifluoromethyl)phenyl]cyclobutoxy]-1H-indol-3-yl}oxane-4-carboxamide], the EC50 lay in the range of 0.04 to 0.2 µM. For `CC(=O)Nc1c[nH]c2ccc(OC3CCN(c4ccc(C(F)(F)F)cc4)C3)cc12` (stereo not drawn) [Compound 494, N-(5-((1-(4-(trifluoromethyl)phenyl)pyrrolidin-3-yl)oxy)-1H-indol-3-yl)acetamide], the EC50 lay within 0.2 to 1 µM.

`CC(=O)Nc1c[nH]c2ccc(C#Cc3ccc(C(F)(F)F)cc3)cc12` [Compound 495, N-(5-((4-(trifluoromethyl)phenyl)ethynyl)-1H-indol-3-yl)acetamide]: the EC50 was 1 to 5 µM. The result for `CC1(C)OC(C)(C)C1C(=O)Nc1c[nH]c2ccc(OCc3ccc(C(F)(F)F)cc3)cc12` [Compound 496, 2,2,4,4-tetramethyl-N-(5-((4-(trifluoromethyl)benzyl)oxy)-1H-indol-3-yl)oxetane-3-carboxamide] reads 0.2 to 1 µM; that for `CC(=O)Nc1c[nH]c2ccc(OC(C)c3ccc(C(F)(F)F)cc3)cc12` (stereo not drawn) [Compound 497, N-(5-(1-(4-(trifluoromethyl)phenyl)ethoxy)-1H-indol-3-yl)acetamide], 1 to 5 µM; that for `O=C(Nc1c[nH]c2ccc(OCCC3CCCN(CC(F)(F)F)C3)cc12)C1CC1` (stereo not drawn) [Compound 498, N-(5-(2-(1-(2,2,2-trifluoroethyl)piperidin-3-yl)ethoxy)-1H-indol-3-yl)cyclopropanecarboxamide], 0.2 to 1 µM. Regarding `CC(=O)Nc1c[nH]c2ccc(CCOC(C)(C)C3CCN(CC(F)(F)F)C3)cc12` (stereo not drawn) [Compound 499, N-(5-(2-((2-(1-(2,2,2-trifluoroethyl)pyrrolidin-3-yl)propan-2-yl)oxy)ethyl)-1H-indol-3-yl)acetamide], the EC50 was 5 to 100 µM. As for `CC(=O)Nc1c[nH]c2ccc(CO[C@H]3C[C@@H](c4ccc(C(F)(F)F)cc4)C3)cc12` [Compound 500, N-(5-((cis-3-(4-(trifluoromethyl)phenyl)cyclobutoxy)methyl)-1H-indol-3-yl)acetamide], the EC50 is 0.04 to 0.2 µM. Turning to `CC(=O)Nc1c[nH]c2ccc(OCC[C@H]3CC[C@](O)(C(F)(F)F)CC3)cc12` [Compound 501, N-(5-(2-(cis-4-hydroxy-4-(trifluoromethyl)cyclohexyl)ethoxy)-1H-indol-3-yl)acetamide], the EC50 lay in the range of 1 to 5 µM. The result for `C[C@]1(C(=O)Nc2c[nH]c3ccc(OCC[C@@H]4C[C@@H]5CN(CC(F)(F)F)C[C@@H]5C4)cc23)CC[C@H](O)CC1` [Compound 504, (1r,4R)-4-hydroxy-1-methyl-N-(5-(2-((3aR,5r,6aS)-2-(2,2,2-trifluoroethyl)octahydrocyclopenta[c]pyrrol-5-yl)ethoxy)-1H-indol-3-yl)cyclohexane-1-carboxamide] reads 0.2 to 1 µM. The result for `C[C@]1(C(=O)Nc2c[nH]c3ccc(OCC[C@@H]4C[C@@H]5CN(CC(F)(F)F)C[C@@H]5C4)cc23)CC[C@@H](O)CC1` [Compound 505, (1s,4S)-4-hydroxy-1-methyl-N-(5-(2-((3aR,5r,6aS)-2-(2,2,2-trifluoroethyl)octahydrocyclopenta[c]pyrrol-5-yl)ethoxy)-1H-indol-3-yl)cyclohexane-1-carboxamide] reads 0.2 to 1 µM; that for `CNC(Cc1ccc(C(F)(F)F)cc1)Cc1ccc2[nH]cc(NC(C)=O)c2c1` (stereo not drawn) [Compound 506, N-(5-(2-(methylamino)-3-(4-(trifluoromethyl)phenyl)propyl)-1H-indol-3-yl)acetamide], 5 to 100 µM; that for `CC(=O)Nc1c[nH]c2ccc(CC3(c4ccc(C(F)(F)F)cc4)CCOC3)cc12` (stereo not drawn) [Compound 507, N-(5-((3-(4-(trifluoromethyl)phenyl)tetrahydrofuran-3-yl)methyl)-1H-indol-3-yl)acetamide], 5 to 100 µM.

In the case of `CC(=O)Nc1c[nH]c2ccc(CCC3(c4ccc(C(F)(F)F)cc4)COC3)cc12` [Compound 508, N-(5-(2-(3-(4-(trifluoromethyl)phenyl)oxetan-3-yl)ethyl)-1H-indol-3-yl)acetamide], the EC50 was in the range of 5 to 100 µM. Consider `C[C@@H]1OC[C@H]1C(=O)Nc1c[nH]c2ccc(OCC[C@@H]3C[C@@H]4CN(CC(F)(F)F)C[C@@H]4C3)cc12` [Compound 509, (2S,3R)-2-methyl-N-(5-(2-((3aR,5r,6aS)-2-(2,2,2-trifluoroethyl)octahydrocyclopenta[c]pyrrol-5-yl)ethoxy)-1H-indol-3-yl)oxetane-3-carboxamide], for which the EC50 lay in the range of 1 to 5 µM.

As to `C[C@H]1OC[C@H]1C(=O)Nc1c[nH]c2ccc(OCC[C@@H]3C[C@@H]4CN(CC(F)(F)F)C[C@@H]4C3)cc12` [Compound 510, (2R,3R)-2-methyl-N-(5-(2-((3aR,5r,6aS)-2-(2,2,2-trifluoroethyl)octahydrocyclopenta[c]pyrrol-5-yl)ethoxy)-1H-indol-3-yl)oxetane-3-carboxamide], the EC50 lay within 0.2 to 1 µM. The result for `C[C@]1(C(=O)Nc2c[nH]c3ccc(OCC[C@@H]4C[C@@H]5CN(CC(F)(F)F)C[C@@H]5C4)cc23)C[C@@H](CO)C1` [Compound 511, (1s,3S)-3-(hydroxymethyl)-1-methyl-N-(5-(2-((3aR,5r,6aS)-2-(2,2,2-trifluoroethyl)octahydrocyclopenta[c]pyrrol-5-yl)ethoxy)-1H-indol-3-yl)cyclobutane-1-carboxamide] reads 0.2 to 1 µM; that for `C[C@]1(C(=O)Nc2c[nH]c3ccc(OCC[C@@H]4C[C@@H]5CN(CC(F)(F)F)C[C@@H]5C4)cc23)C[C@H](CO)C1` [Compound 512, (1r,3R)-3-(hydroxymethyl)-1-methyl-N-(5-(2-((3aR,5r,6aS)-2-(2,2,2-trifluoroethyl)octahydrocyclopenta[c]pyrrol-5-yl)ethoxy)-1H-indol-3-yl)cyclobutane-1-carboxamide], 0.2 to 1 µM.

In the case of `C[C@]1(C(=O)Nc2c[nH]c3ccc(OCC[C@@H]4C[C@@H]5CN(CC(F)(F)F)C[C@@H]5C4)cc23)C[C@@H](O)C1` [Compound 513, (1s,3S)-3-hydroxy-1-methyl-N-(5-(2-((3aR,5r,6aS)-2-(2,2,2-trifluoroethyl)octahydrocyclopenta[c]pyrrol-5-yl)ethoxy)-1H-indol-3-yl)cyclobutane-1-carboxamide], the concentration for a half-maximal effect (EC50) lay in the range of 0.2 to 1 µM.

As to `C[C@]1(C(=O)Nc2c[nH]c3ccc(OCC[C@@H]4C[C@@H]5CN(CC(F)(F)F)C[C@@H]5C4)cc23)C[C@H](O)C1` [Compound 514, (1r,3R)-3-hydroxy-1-methyl-N-(5-(2-((3aR,5r,6aS)-2-(2,2,2-trifluoroethyl)octahydrocyclopenta[c]pyrrol-5-yl)ethoxy)-1H-indol-3-yl)cyclobutane-l-carboxamide], the EC50 was 0.2 to 1 µM.
